Assay results as given in patent publication US20210322509A1, “Methods for Reducing Perinatal Morbidity and / or Mortality” (CHU SAINTE-JUSTINE, priority 2016, published 2021).
Marks after values point to notes of the source that are not given here. Non-standard residues stand in square brackets, D forms with d. Residues, ends and D or L forms follow the SMILES beside them. ξ: configuration not given here. dThr(3ξ) = CC(O)[C@@H](N)C(=O)O

System: progeny of C57Bl/6 dams given LPS and/or compound 2
Assay: Offspring growth trajectory and body morphometry at 20 weeks after exposure in utero
Type: in vivo, C57Bl/6 mice
Details: for Adrenals L / Adrenals R / Biceps / Brain / Combined Muscle / Gastrocnemius / Heart / Kidneys L / Kidneys R / Lean body weight / Liver / Lungs / Muscle:fat ratio / Ovary L / Ovary R / Parametrial Fat / Peri-renal Fat / Quadriceps / Retroperitoneal Fat / Spleen / Thymus / Total Central Fat / Triceps / Uterus / Epididymal Fat / Epididymis (L + R) / Seminal Vesicle / Testes L / Testes R: mean ± SEM
Description: FIGS. 12A and 12B show the effect of exposure to compound 2 in utero on growth trajectory in offspring. Pregnant females were given either LPS or PBS control i.p. on gd 16.5, then compound 2 or PBS vehicle i.p. at 12 h intervals on gd 16.5, 17.0, 17.5 and 18.0. Growth trajectories of male (FIG. 12A) and female (FIG. 12B) progeny of mothers receiving LPS and/or compound 2 are shown as estimated marginal means±SEM, of n=20 male and n=20 female offspring in each group; *P<0.05). Data was analyzed by a Mixed Model Linear Repeated Measures ANOVA and post-hoc Sidak test.
Animal and treatments. To analyze effects of compound 2 on offspring development into adulthood, pups delivered in the experiment described in Example 5 were weighed at 21 days, when pups were weaned and housed in groups of 1-4 siblings according to sex. All progeny were weighed again at 4 weeks and then every 2 weeks until 20 weeks of age. At 20 weeks, progeny were killed by cervical dislocation, weighed and autopsied for full body composition analysis. The following tissues were excised and weighed individually; brain, heart, lungs (left and right), kidneys (left and right), liver, adrenal glands (left and right), thymus, spleen, testes (males, left and right), seminal vesicle (males), epididymis (males), ovaries (females, left and right), uterus (females), quadriceps (left and right), triceps (left and right), biceps (left and right), gastrocnemius muscle (left and right), retroperitoneal fat, peri-renal fat, epididymal fat (males, left and right) and parametrial fat (females). Weights of bilateral tissues and organs were combined for each mouse. Total muscle weight was calculated by summing the weights of quadriceps, triceps, and biceps and gastrocnemius muscles. Total fat weight was calculated by summing the weights of retroperitoneal fat, peri-renal fat and epididymal fat (for males) or parametrial fat (for females), and the muscle/fat ratio was determined. Total fat weight was subtracted from total body weight to calculate total lean weight.

[1] = 20 week old adult female progeny, LPS + compound 2 in utero
[2] = 20 week old adult female progeny, PBS + compound 2 in utero
[3] = 20 week old adult male progeny, LPS + compound 2 in utero
[4] = 20 week old adult male progeny, PBS + compound 2 in utero

## CC(C)C[C@@H](NC(=O)[C@@H](CCC(=O)O)NC(=O)[C@H](NC(=O)[C@H](NC(=O)[C@@H](Cc1ccc(O)cc1)NC(=O)[C@H](N)CCCNC(=N)N)C(C)O)C(C)C)C(=O)N[C@H](C)C(=O)O (stereo partly drawn) [compound 2] (H-[dR][dY][dThr(3ξ)][dV][dE][dL][dA]-OH)
[1]
  Adrenals L: 4 ± 0 mg
  Adrenals R: 4 ± 0 mg
  Biceps: 48 ± 3 mg
  Brain: 408 ± 9 mg
  Combined Muscle: 673 ± 25 mg
  Gastrocnemius: 207 ± 8 mg
  Heart: 105 ± 4 mg
  Kidneys L: 120 ± 5 mg
  Kidneys R: 127 ± 6 mg
  Lean body weight: 19.44 g
  Liver: 955 ± 38 mg
  Lungs: 165 ± 10 mg
  Muscle:fat ratio: 1.23 ± 0.06
  Ovary L: 13 ± 2 mg
  Ovary R: 13 ± 1 mg
  Parametrial Fat: 180 ± 20 mg
  Peri-renal Fat: 66 ± 7 mg
  Quadriceps: 254 ± 13 mg
  Retroperitoneal Fat: 317 ± 18 mg
  Spleen: 86 ± 7 mg
  Thymus: 70 ± 5 mg
  Total Central Fat: 562 ± 41 mg
  Triceps: 165 ± 7 mg
  Uterus: 66 ± 8 mg
[2]
  Adrenals L: 4 ± 0 mg
  Adrenals R: 4 ± 0 mg
  Biceps: 51 ± 3 mg
  Brain: 406 ± 9 mg
  Combined Muscle: 690 ± 24 mg
  Gastrocnemius: 215 ± 8 mg
  Heart: 109 ± 3 mg
  Kidneys L: 112 ± 5 mg
  Kidneys R: 122 ± 6 mg
  Lean body weight: 19.85 g
  Liver: 945 ± 37 mg
  Lungs: 174 ± 11 mg
  Muscle:fat ratio: 1.18 ± 0.06
  Ovary L: 16 ± 2 mg
  Ovary R: 16 ± 1 mg
  Parametrial Fat: 192 ± 20 mg
  Peri-renal Fat: 71 ± 7 mg
  Quadriceps: 254 ± 12 mg
  Retroperitoneal Fat: 326 ± 18 mg
  Spleen: 93 ± 7 mg
  Thymus: 64 ± 5 mg
  Total Central Fat: 589 ± 40 mg
  Triceps: 170 ± 7 mg
  Uterus: 63 ± 7 mg
[3]
  Adrenals L: 4 ± 0 mg
  Adrenals R: 3 ± 1 mg
  Biceps: 58 ± 3 mg
  Brain: 413 ± 5 mg
  Combined Muscle: 848 ± 18 mg
  Epididymal Fat: 224 ± 16 mg
  Epididymis (L + R): 102 ± 3* mg
  Gastrocnemius: 260 ± 7 mg
  Heart: 128 ± 3 mg
  Kidneys L: 149 ± 5 mg
  Kidneys R: 159 ± 5 mg
  Lean body weight: 23.04 g
  Liver: 1097 ± 40 mg
  Lungs: 173 ± 4 mg
  Muscle:fat ratio: 1.39
  Peri-renal Fat: 65 ± 6 mg
  Quadriceps: 313 ± 8 mg
  Retroperitoneal Fat: 334 ± 26 mg
  Seminal Vesicle: 218 ± 9 mg
  Testes L: 84 ± 3 mg
  Testes R: 85 ± 3 mg
  Total Central Fat: 625 ± 37 mg
  Triceps: 217 ± 6 mg
[4]
  Adrenals L: 5 ± 0 mg
  Adrenals R: 6 ± 2 mg
  Biceps: 67 ± 4 mg
  Brain: 404 ± 7 mg
  Combined Muscle: 840 ± 23 mg
  Epididymal Fat: 244 ± 20 mg
  Epididymis (L + R): 112 ± 4 mg
  Gastrocnemius: 241 ± 9 mg
  Heart: 131 ± 4 mg
  Kidneys L: 156 ± 6 mg
  Kidneys R: 162 ± 6 mg
  Lean body weight: 23.59 g
  Liver: 1141 ± 47 mg
  Lungs: 181 ± 5 mg
  Muscle:fat ratio: 1.28
  Peri-renal Fat: 72 ± 7 mg
  Quadriceps: 318 ± 10 mg
  Retroperitoneal Fat: 353 ± 30 mg
  Seminal Vesicle: 233 ± 12 mg
  Testes L: 85 ± 3 mg
  Testes R: 87 ± 3 mg
  Thymus: 53 ± 4 mg
  Total Central Fat: 669 ± 46 mg
  Triceps: 215 ± 8 mg
Compound 2 exposure in utero, 20 weeks
  body composition of adult offspring: no effect
Compound 2 to dams, with or without concurrent LPS exposure, up to 20 weeks
  growth trajectory of male and female offspring: not affected
